Calls of active or inactive are those of the source.
Legend:
Protein RecA = biological target: T1, Protein RecA (Mycobacterium tuberculosis, UniProt P9WHJ3); assay: Fluorescence Cell-Free Homogeneous Dose Retest to Identify Inhibitors of RecA-Intein Splicing Activity. [Related pubchem assays (depositor defined):AID2097, AID2223, AID489010, AID492950]; type: functional
T1 sequence (P9WHJ3 whole entry): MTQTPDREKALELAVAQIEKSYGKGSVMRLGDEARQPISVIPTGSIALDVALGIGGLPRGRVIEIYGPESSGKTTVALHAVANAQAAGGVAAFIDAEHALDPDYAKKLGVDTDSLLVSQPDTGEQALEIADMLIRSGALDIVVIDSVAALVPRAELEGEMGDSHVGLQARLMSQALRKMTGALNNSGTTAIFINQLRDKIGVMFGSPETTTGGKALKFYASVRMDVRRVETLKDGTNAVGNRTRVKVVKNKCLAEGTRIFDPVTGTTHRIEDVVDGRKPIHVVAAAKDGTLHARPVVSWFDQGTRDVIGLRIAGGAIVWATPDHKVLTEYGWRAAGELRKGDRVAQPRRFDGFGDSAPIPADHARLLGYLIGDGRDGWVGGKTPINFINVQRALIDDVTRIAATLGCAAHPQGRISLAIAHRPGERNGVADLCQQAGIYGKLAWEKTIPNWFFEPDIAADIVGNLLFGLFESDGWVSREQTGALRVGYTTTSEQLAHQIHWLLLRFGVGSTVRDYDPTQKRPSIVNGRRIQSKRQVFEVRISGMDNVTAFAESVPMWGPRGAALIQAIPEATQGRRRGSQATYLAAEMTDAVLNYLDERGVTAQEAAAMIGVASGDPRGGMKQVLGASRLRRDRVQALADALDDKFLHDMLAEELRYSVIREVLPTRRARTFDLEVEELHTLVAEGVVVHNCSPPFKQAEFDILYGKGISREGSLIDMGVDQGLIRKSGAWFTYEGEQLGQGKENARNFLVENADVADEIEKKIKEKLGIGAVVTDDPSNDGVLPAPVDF

Paired box protein Pax-8 = Paired box protein Pax-8 (Homo sapiens, UniProt Q06710); assay: inhibitors of PAX8-driven TPO luciferase reporter, dose response, RMG-I cells, cherry-pick (AID 687027); type: functional, cell-based;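 note: luciferase reporter driven by Pax8 target thyroperoxidase promoter measured by SteadyGlo luminescence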
[1] = A549 cell cytotoxicity, dose response, cytotoxicity control, plate reader, cherry-pick, antagonist series (AID 743412); type: functional, cell-based
[2] = MC4R antagonists, dose response, counter-screen for LGR2 antagonist project, cell-based, plate reader, cherry pick (AID 743444); type: functional;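 note: transfected HEK 293 cells stimulated with alpha-MSH peptide; potency of inhibitors of the alpha-MSH evoked signal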
[3] = HEK293 cell cytotoxicity, dose response, cytotoxicity control, plate reader, cherry-picked samples (AID 743446); type: functional, cell-based
[4] = control 3'UTR Renilla luciferase suppression, dose response, counter-screen for Shn3 inhibitor project, cell-based, Clone20-Shn3RL, cherry-picked (AID 624133); type: functional
[5] = biological target: T2, Replicative DNA helicase DnaB (Mycobacterium tuberculosis, UniProt P9WMR3); assay: DnaB intein splicing inhibitors, dose response, biochemical, cell-free fluorescence (AID 449749); type: functional
T2 sequence (P9WMR3 whole entry): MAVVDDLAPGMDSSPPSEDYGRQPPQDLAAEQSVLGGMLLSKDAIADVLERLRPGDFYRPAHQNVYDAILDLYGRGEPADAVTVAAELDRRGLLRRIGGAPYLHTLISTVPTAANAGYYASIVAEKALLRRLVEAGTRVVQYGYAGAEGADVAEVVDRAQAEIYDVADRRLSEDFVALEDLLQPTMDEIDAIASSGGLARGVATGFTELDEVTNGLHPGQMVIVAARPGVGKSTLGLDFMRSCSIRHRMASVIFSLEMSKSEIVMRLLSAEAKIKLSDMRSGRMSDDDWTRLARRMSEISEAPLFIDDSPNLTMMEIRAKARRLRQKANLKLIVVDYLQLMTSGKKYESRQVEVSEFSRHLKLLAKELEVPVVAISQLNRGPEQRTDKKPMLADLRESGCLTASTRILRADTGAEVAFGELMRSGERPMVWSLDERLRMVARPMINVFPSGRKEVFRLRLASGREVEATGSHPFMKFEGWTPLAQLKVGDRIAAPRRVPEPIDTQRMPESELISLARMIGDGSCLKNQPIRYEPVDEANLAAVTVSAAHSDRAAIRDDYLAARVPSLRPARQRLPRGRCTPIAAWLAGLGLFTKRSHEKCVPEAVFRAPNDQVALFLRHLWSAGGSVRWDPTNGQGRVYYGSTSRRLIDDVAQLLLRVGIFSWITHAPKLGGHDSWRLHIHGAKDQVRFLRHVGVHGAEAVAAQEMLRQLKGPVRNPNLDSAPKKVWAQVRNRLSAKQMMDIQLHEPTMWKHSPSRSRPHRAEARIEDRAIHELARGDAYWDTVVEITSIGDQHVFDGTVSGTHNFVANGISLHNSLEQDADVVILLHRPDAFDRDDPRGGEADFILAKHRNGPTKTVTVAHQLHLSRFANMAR

[6] = HepG2 cell cytotoxicity, dose response, cytotoxicity control for Shn3 inhibitor project, CellTiter-Glo, cherry-picked (AID 624134); type: functional, cell-based
[7] = LGR2 antagonists, dose response, cell-based, HEK293, CRE-luciferase reporter, cherry pick, set 2 (AID 743343); type: functional;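 note: transfected cells were stimulated with diluted bursicon conditioned medium after compound addition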
[8] = biological target: T3, Ubiquitin-conjugating enzyme E2 N (Homo sapiens, UniProt P61088); type: functional;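 note: Dose-response confirmation in a TR-FRET assay detecting UBC13-driven polyubiquitin chain formation, inhibition measured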
T3 sequence (P61088 whole entry): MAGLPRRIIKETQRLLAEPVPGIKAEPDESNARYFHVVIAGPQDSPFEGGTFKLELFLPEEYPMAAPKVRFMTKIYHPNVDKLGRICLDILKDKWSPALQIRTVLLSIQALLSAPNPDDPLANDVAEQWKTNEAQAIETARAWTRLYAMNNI

[9] = HepG2 cell cytotoxicity, dose response, cytotoxicity control, plate reader, cherry-pick, antagonist series (AID 743416); type: functional, cell-based
HEK293 = assay: HEK cell cytotoxicity by LDH release, dose response, cytotoxicity control for IDE activator project, fluorescence, HEK cells (AID 588440); type: functional, cell-based; conditions: Homo sapiens;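 note: cytotoxicity by LDH release measuring loss of membrane integrity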
[10] = inhibitors of PGC1a acetylation in cells, dose response, cell-based, cherry-picked samples (AID 720514); type: functional;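 note: potency may reflect raised or lowered acetylation signal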

Chain of Paired box protein Pax-8 (Q06710 whole entry): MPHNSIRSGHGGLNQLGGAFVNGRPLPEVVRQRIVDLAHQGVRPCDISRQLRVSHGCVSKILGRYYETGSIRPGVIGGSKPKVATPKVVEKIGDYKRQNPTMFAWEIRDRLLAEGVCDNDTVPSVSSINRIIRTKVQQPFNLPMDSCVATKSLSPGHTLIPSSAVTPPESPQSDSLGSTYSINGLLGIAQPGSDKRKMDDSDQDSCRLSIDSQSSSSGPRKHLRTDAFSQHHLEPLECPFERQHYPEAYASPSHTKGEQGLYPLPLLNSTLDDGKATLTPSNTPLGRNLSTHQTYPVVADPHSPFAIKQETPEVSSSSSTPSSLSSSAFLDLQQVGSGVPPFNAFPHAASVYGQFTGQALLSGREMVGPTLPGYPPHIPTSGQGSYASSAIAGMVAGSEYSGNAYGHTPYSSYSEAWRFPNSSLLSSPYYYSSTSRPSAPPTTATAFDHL

Structure (SMILES): Cl.N=c1n(Cc2ccccc2)c2ccccc2n1CC(O)COc1ccc(Cl)cc1Cl (stereo not drawn)
- EC50 (Protein RecA): > 380 µM (inconclusive)
- AC50 (Paired box protein Pax-8): 17.2 µM (active)
- AC50 [1]: 6.26 µM (active)
- AC50 [2]: 26.6 µM (active)
- AC50 [3]: 12.7 µM (active)
- AC50 [4]: 5.16 µM (active)
- AC50 [5]: 2.51 µM (active)
- AC50 [6]: 14.3 µM (active)
- AC50 [7]: 23.1 µM (active)
- IC50 [8]: > 20 µM (inactive)
- AC50 [9]: 6.16 µM (active)
- IC50 (HEK293): 8.27 µM (active)
- AC50 [10]: 6.94 µM (active)
